pIC50, pKi: −log10 of the molar value. Read-outs that look alike come from different tables or passages of the source. Marks after values point to notes of the source that are not given here.
What was measured:
[1] = biological target: T1, human purine nucleoside phosphorylase (Homo sapiens, UniProt P00491); details: background statement; cited from earlier work
T1 sequence (P00491 1-289): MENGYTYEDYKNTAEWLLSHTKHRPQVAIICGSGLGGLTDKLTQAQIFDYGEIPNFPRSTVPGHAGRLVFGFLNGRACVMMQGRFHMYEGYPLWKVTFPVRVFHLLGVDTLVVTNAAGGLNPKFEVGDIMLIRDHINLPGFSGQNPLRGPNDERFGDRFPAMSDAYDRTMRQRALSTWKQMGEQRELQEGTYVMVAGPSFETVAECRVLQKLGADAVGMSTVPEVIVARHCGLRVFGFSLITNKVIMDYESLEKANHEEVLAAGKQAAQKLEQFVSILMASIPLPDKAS

Zucker (fa/fa) rats = test: Glucose tolerance test in diabetic Zucker (fa/fa) rats; assay type: in vivo, rat; details: for Blood Glucose at 120 minutes: fasted Zucker (fa/fa) rats, IP glucose 1.5 g/kg
Method: Thirty-six 16 wk old male Zucker (fa/fa) rats were randomly assigned to one of the following groups: • 1. Vehicle (0.9% NaCl) • 2. Metformin—320 mg/kg • 3. Compound 1.1—10 mg/kg Acid • 4. Compound 1.1—100 mg/kg Acid • 5. Compound 3.1—10 mg/kg Ester • 6. Compound 3.1—100 mg/kg Ester
Animals were fasted for 16-18 hr and lightly anesthetized with a mixture of ketamine/xylazine at a dose of 0.5 ml/kg (45 mg/kg ketamine, 5 mg/kg xylazine). Animals received their respective treatments via IP injection (1.5 ml/kg) followed by an IP injection of glucose at 1.5 g/kg. Blood glucose was measured at 0, 30, 60, 90, and 120 minutes post-glucose.

HL-60, Leukemia = test: Anticancer activity, HL-60; assay type: cell-based
6-phosphofructo-1-kinase [2] = test: Activation of 6-phosphofructo-1-kinase; assay type: biochemical; details: for Ka: concentration giving half-maximal activation
Text: (§1) Studies of Compound 2 have shown that it activates 6-phosphofructo-1-kinase (6PF1K) and inhibits fructose-1,6-bisphosphatase (FBPase). […] It is well known that by increasing the rate of glycolysis, the rate of gluconeogenesis decreases (Hanson et al. (1984) J. Biol. Chem. 259, 218-223).
Ka is the concentration of substrate giving half-maximal activation.

[3] = biological target: T2, Fructose-1,6-bisphosphatase (Homo sapiens, UniProt P09467); test: Inhibition of fructose-1,6-bisphosphatase; assay type: biochemical
T2 sequence (P09467 2-338 limits assumed): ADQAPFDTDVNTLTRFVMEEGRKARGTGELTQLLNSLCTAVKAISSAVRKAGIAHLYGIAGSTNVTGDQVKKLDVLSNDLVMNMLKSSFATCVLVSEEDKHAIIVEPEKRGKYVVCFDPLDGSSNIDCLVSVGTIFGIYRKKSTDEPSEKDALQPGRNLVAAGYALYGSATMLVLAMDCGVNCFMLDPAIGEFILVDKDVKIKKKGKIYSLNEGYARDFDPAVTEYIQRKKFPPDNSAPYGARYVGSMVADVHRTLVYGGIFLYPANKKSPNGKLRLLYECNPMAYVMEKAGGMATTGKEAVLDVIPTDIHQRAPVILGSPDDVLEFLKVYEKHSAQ
Text: as §1

FAO hepatoma cells [4] = test: Inhibition of glucose production in FAO cells; assay type: cell-based; details: for Percent inhibition of glucose production: FAO cells
Text: as §1

6-phosphofructo-1-kinase [5] = details: background statement; cited from earlier work
[6] = biological target: T2, Fructose-1,6-bisphosphatase; details: background statement; cited from earlier work
FAO hepatoma cells [7] = details: background statement; cited from earlier work
[8] = tested on: INS-1 clonal pancreatic B-cells; test: Stimulation of insulin secretion in INS-1 cells; assay type: cell-based; details: for Insulin release greater compared to controls: 3 mM glucose, 500 μM compound, overnight; for Activating effect on insulin release, in words: 16 mM glucose
Method: INS-1 clonal pancreatic B-cells were grown in well plates or T-25 flasks incubated overnight with INS-1 cell media with 3 mM glucose and 500 μM of compound 3 or compound 4. Insulin samples were collected for 10 minutes at 18 second intervals. Insulin release was greater for both compound 3.1 and compound 4.1 compared to controls, by about 50 percent, under these conditions. At 16 mM glucose the activating effect disappeared.

HTC hepatoma cells = test: Inhibition of intracellular lipid synthesis in HTC hepatoma cells; assay type: cell-based; details: 500 μM; for Cholesterol: control 48; for Triglyceride: control 60
[9] = biological target: T3, calf spleen purine nucleoside phosphorylase (Bos taurus, UniProt P55859); test: Inhibition of calf spleen purine nucleoside phosphorylase (cPNP); assay type: biochemical; details: for cPNP activity: 27 μM compound
T3 construct: from tissue; host or cells: calf spleen
T3 sequence (P55859 1-289): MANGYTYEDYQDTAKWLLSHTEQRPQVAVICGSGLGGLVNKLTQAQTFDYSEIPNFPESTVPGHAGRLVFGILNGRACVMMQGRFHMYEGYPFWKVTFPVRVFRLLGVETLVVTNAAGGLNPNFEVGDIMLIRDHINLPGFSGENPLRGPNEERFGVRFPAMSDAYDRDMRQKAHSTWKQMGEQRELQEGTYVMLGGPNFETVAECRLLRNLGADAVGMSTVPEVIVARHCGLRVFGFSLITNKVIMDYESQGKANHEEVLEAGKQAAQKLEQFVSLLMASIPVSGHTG
Method: Compound 4.1 (27 μM) was incubated with calf spleen purine nucleoside phosphorylase with increasing concentrations of inorganic phosphate.

Rh1, Ewing Sarcoma = test: Anticancer activity, Rh1; assay type: cell-based

O=P(O)(O)OC1O[C@H](CI)[C@@H](O)[C@H]1O (stereo partly shown) [5-iodo-ribose-1-phosphate]
Effect on human purine nucleoside phosphorylase, in words [1]: inhibits

O=P(O)(O)CC1OC(CO)C(O)C1O (stereo not shown) [Compound 1.1, ribose-1-methylenephosphonate]
Blood Glucose at 120 minutes (Zucker (fa/fa) rats; 10 mg/kg IP): 460 mg/dL
Blood Glucose at 120 minutes (Zucker (fa/fa) rats; 100 mg/kg IP): 400 mg/dL
Effect on blood glucose levels, in words (Zucker (fa/fa) rats; fasted diabetic Zucker (fa/fa), injected, glucose challenge): reduce blood glucose levels
pIC50 (HL-60, Leukemia): 3.77

O=P(O)(O)CC1OC(COP(=O)(O)O)C(O)C1O (stereo not shown) [Compound 2.1, 5-phosphoribosyl-1-methylenephosphonate]
Effect on 6-phosphofructo-1-kinase (6PF1K), in words (6-phosphofructo-1-kinase [2]): activates
Ka (6-phosphofructo-1-kinase [2]): 6.5 µM
Effect on fructose-1,6-bisphosphatase (FBPase), in words [3]: inhibits
pKi ([3]; At 5 μM Fru-1,6-bisphosphate): 4.06
Maximum Decrease in Activity ([3]; At 5 μM Fru-1,6-bisphosphate): 50%
pKi ([3]; At 20 μM Fru-1,6-bisphosphate): 4.06
Maximum Decrease in Activity ([3]; At 20 μM Fru-1,6-bisphosphate): 50%
Percent inhibition of glucose production (FAO hepatoma cells [4]; 60 μM): 20 ± 15%
Percent inhibition of glucose production (FAO hepatoma cells [4]; 100 μM (last row of the table)): 60 ± 15%
Percent inhibition of glucose production (FAO hepatoma cells [4]; 125 μM): 35 ± 10%
Percent inhibition of glucose production (FAO hepatoma cells [4]; 250 μM): 40 ± 10%
Percent inhibition of glucose production (FAO hepatoma cells [4]; 500 μM): 35 ± 10%
Glucose production in FAO hepatoma cells, in words (FAO hepatoma cells [4]; incubated with FAO hepatoma cells): inhibits glucose production
Blood Glucose at 120 minutes (Zucker (fa/fa) rats; 10 mg/kg IP): 500 mg/dL
Blood Glucose at 120 minutes (Zucker (fa/fa) rats; 100 mg/kg IP): 500 mg/dL
Ka (6-phosphofructo-1-kinase [5]): 6.5 µM
pKi [6]: 4.07
Glucose production in cultured hepatoma cells (FAO), in words (FAO hepatoma cells [7]): inhibit glucose production

CCOP(=O)(CC1OC(CO)C(O)C1O)OCC (stereo not shown) [Compound 3.1, ribose-1-methylenediethylphosphonate]
Insulin release greater compared to controls [8]: about 50%
Activating effect on insulin release, in words [8]: disappeared

O=P(O)(O)C(F)(F)C1OC(CO)C(O)C1O (stereo not shown) [Compound 4.1, ribose-1-difluoromethylenephosphonate]
Insulin release greater compared to controls [8]: about 50%
Activating effect on insulin release, in words [8]: disappeared
Cholesterol (HTC hepatoma cells): 39 μg/mg protein
Triglyceride (HTC hepatoma cells): 44 μg/mg protein
Decrease in cholesterol levels compared to control (HTC hepatoma cells; overnight): ~20%
Decrease in triglyceride levels compared to control (HTC hepatoma cells; overnight): 26%
cPNP activity ([9]; Pi 20 μM, control 170): 18* arbitrary units
cPNP activity ([9]; Pi 50 μM, control 237): 31 arbitrary units
cPNP activity ([9]; Pi 200 μM, control 298): 96 arbitrary units
cPNP activity ([9]; Pi 1500 μM, control 327): 176 arbitrary units
Mode of inhibition of cPNP, in words ([9]; 27 μM, increasing inorganic phosphate): likely a competitive inhibitor of cPNP
pIC50 (Rh1, Ewing Sarcoma): 3.77

CN(C)C(=N)N=C(N)N [Metformin, reference compound]
Blood Glucose at 120 minutes (Zucker (fa/fa) rats; 320 mg/kg IP): 400 mg/dL
Cholesterol (HTC hepatoma cells): 38 μg/mg protein
Triglyceride (HTC hepatoma cells): 42 μg/mg protein

O=P(O)(O)OC[C@H]1O[C@@](CO)(OP(=O)(O)O)[C@@H](O)[C@@H]1O [fructose-2,6-bisphosphate, reference compound]
Ka (6-phosphofructo-1-kinase [2]): 0.09 µM

O=P(O)(O)OC[C@H]1OC(OP(=O)(O)O)[C@H](O)[C@@H]1O (stereo partly shown) [ribose-1,5-bisphosphate, reference compound]
Ka (6-phosphofructo-1-kinase [2]): 3.5 µM
pKi ([3]; At 5 μM Fru-1,6-bisphosphate): 4.06
Maximum Decrease in Activity ([3]; At 5 μM Fru-1,6-bisphosphate): 50%
pKi ([3]; At 20 μM Fru-1,6-bisphosphate): 4.06
Maximum Decrease in Activity ([3]; At 20 μM Fru-1,6-bisphosphate): 50%
